One assay deals with Th17 cells. Description: Th17 polarization, IL-17 by flow cytometry (Figure 1H). Type of assay: cell-based, mouse. As to the method: Naive CD4^+ T cells were isolated from the spleens of C57BL/6J or CD45.1^+ OT-II mice using the MojoSort Mouse CD4 Naive T Cell Isolation Kit (BioLegend, catalog 480040), following the manufacturer’s protocol. Purified cells were cultured in RPMI-1640 medium supplemented with 10% FBS, 1% penicillin-streptomycin, and 0.1% β-mercaptoethanol (Gibco, catalog 21985023).
T cell polarization was initiated under plate-bound anti-CD3 (2 μg/mL, clone 17A2, BioXCell, catalog BE0002) and soluble anti-CD28 (1 μg/mL, clone 37.51, BioXCell, catalog BE0015-1) stimulation, with the addition of cytokines and neutralizing antibodies specific to each subset. For Th9 cells, these included IL-4 (10 ng/mL, Peprotech, catalog 400-04), TGF-β (1 ng/mL, EPOTO Biotech, catalog HF-2021), anti–IL-12 (5 μg/mL, clone C17.8, BioXCell, catalog BE0051), and anti–IFN-γ (10 μg/mL, clone XMG1.2, BioXCell, catalog BE0055); for Th1 cells, these included IL-12 (10 ng/mL, GenScript, catalog Z03211-50) and anti–IL-4 (5 μg/mL, clone 11B11, BioXCell, catalog BE0045); for Th2 cells, these included IL-4 (50 ng/mL), anti–IFN-γ (20 μg /mL), anti–IL-12 (5 μg/mL), Th17 cells: IL-6 (20 ng/mL, EPOTO Biotech, catalog MF-1006), TGF-β (1 ng/mL), IL-1β (10 ng/mL, Peprotech, catalog AF-211-11B), anti–IFN-γ (10 μg/mL), anti–IL-12 (5 μg/mL), and anti–IL-4 (5 μg/mL); and for Tregs, these included TGF-β (3 ng/mL). […]
A general note: In flow cytometry, cells or beads pass a laser one at a time.

Another assay deals with endogenous CD8+ T cells. Description: Cytokines and granzyme B/perforin in endogenous CD8+ T cells (Figure 3H, S4D-F). Conditions: for Expression of IFN-g of endogenous CD8⁺ T cells in tumor: Supplemental Figure 4D; for Expression of TNF-α of endogenous CD8⁺ T cells in tumor: Supplemental Figure 4E; for Expression of GzmB+Perforin+ of endogenous CD8⁺ T cells in tumor: Supplemental Figure 4F. Type of assay: in vivo, mouse. Further details: TNF-α expression / IFN-γ expression / Expression of IFN-g of endogenous CD8⁺ T cells in tumor / Expression of TNF-α of endogenous CD8⁺ T cells in tumor: unit not given here. On the procedure:
C57BL/6 mice were subcutaneously injected with 5 × 10^5 B16-OVA melanoma cells. Five days after tumor implantation, mice received an intravenous infusion of 2 × 10^6 in vitro–differentiated Th9 cells (cultured for 5 days), which were derived from OT-II CD45.1 donor mice, accompanied by 4 × 10^5 OVA peptide–pulsed DCs via the tail vein. To enhance T cell engraftment and facilitate lymphodepletion, a single intraperitoneal injection of cyclophosphamide (200 mg/kg, Sigma, catalog C0768) was administered 1 day prior to T cell transfer. Mice were euthanized at designated time points for the collection and analysis of spleens, tumor-draining lymph nodes, and tumor tissues.
Details regarding staining panels (human and mouse), reagents (including clones and catalog numbers), acquisition settings, compensation/controls, and analysis procedures are provided in Supplemental Methods.
BioLegend, Cat. No. 422301 or Mouse TruStain FcX™, BioLegend, Cat. No. 101319) for 10 minutes at 4°C. For surface marker detection, cells were stained with fluorochrome-conjugated monoclonal antibodies in 96-well V-bottom plates and incubated on ice for 30 minutes. After staining, cells were washed twice and resuspended in FACS buffer for analysis.
Prior to intracellular cytokine staining, cells were restimulated for 4 hours with PMA (Absin, Cat. No. abs9107), ionomycin (Sigma-Aldrich, Cat. No. I0634), and brefeldin A (MedChemExpress, Cat. No. HY-16592). For intracellular cytokine staining, cells were first surface-stained as described above, then fixed and permeabilized using the BD Cytofix/Cytoperm™ kit (BD Biosciences, Cat. No. 554714) according to the manufacturer ’s protocol. Intracellular proteins were stained with directly conjugated antibodies targeting IL-9, IL-17a, IL-4, IFN-γ, TNF-α, FOXP3, p-ZAP70, Perforin, and […]
Antibodies used for mouse samples included those against IL-9 (PE, clone RM9A4, Biolegend, Cat. No. 514104), IFN-γ (PE, clone XMG1.2, Biolegend, Cat. No.
Cat. No. 103138), CD4 (APC/Cy7, clone E-AB-F1353UJ, Elabscience, Cat. No.
AF18028), CD8α (PerCP/Cy5.5, clone E-AB-F1104UJ, Elabscience, Cat. No. […]
clone E-AB-F1187UH, Elabscience, Cat. No. AF19854), TNF-α (BV421, clone MP6-XT22, Biolegend, Cat. No. 506328), FOXP3 (PE, clone FJK-16s, eBioscience, Cat. No.
Perforin (APC, clone S16009A, Biolegend, Cat. No. 154303) and Granzyme B (APC, clone QA16A02, Biolegend, Cat. No. 372203). For human samples, antibodies against CD4 (PerCP/Cy5.5, clone RPA-T4, Biolegend, Cat. No. 300530; APC/Cy7, clone OKT4, Biolegend, Cat. No. 317418), CD19 (APC/Cy7, clone SJ25C1, Biolegend, Cat.
No. 363009), IFN-γ (PE, clone 4S.B3, Biolegend, Cat. No. 502509), IL-9 (PE, clone

Another assay has as its system ZAP70. Put plainly: CETSA of ZAP70 in Jurkat cell lysates (Figure 5C-D). In kind it is binding, Jurkat cells. The following applies: result in words. On the procedure: Jurkat or 293T cells were washed twice with PBS and resuspended in PBS containing protease and phosphatase inhibitors. Cells were lysed by 3 cycles of liquid nitrogen snap-freezing and thawing at room temperature. […] One aliquot from each group was maintained at room temperature, and the others were heated for 3 minutes at 3 °C increments from 43°C to 64°C. Samples were then analyzed by SDS-PAGE and immunoblotting to assess protein thermal stability and compound binding.

Where [1] appears, read: endogenous CD8+, spleen, individual mice, n = 4.

Several values for one entry are separate records, joined by “and”; a condition that tells them apart may be missing. Identical values can stand only once.

As to anteiso-C15 Leu7 surfactin [EpA], the “IL-17 expression under Th17 polarization” value with Th17 cells (EpA 10 μM, individual replicates, n = 4) is 31.3 and 30.4 and 30.7 and 33.1. The “effect on Th17 polarization” value in the assay on Th17 cells (result in words) was “did not affect”. Moreover, in the assay on endogenous CD8+ T cells (CD8+ T cells in tumors, representative flow plot, Figure S4F), the “GzmB+ PRF1+ gate number” value was determined as 30.0. In addition, in the assay with endogenous CD8+ T cells (setting [1]), the “GzmB and Perforin expression” value was 76.8 and 76 and 70.2 and 67.3; the IFN-γ expression is 11.6 and 15.2 and 19.5 and 6.9; the TNF-α expression was 6.15 and 4.55 and 6.06 and 5. In the assay with endogenous CD8+ T cells (spleen, result in words), the “TNF-α expression of CD8+ T cells” value was “remained unchanged” and the “granzyme B+ perforin+ CD8+ T cells” value is listed as “pronounced increase”. In the assay with endogenous CD8+ T cells (replicate 1), the “Expression of IFN-g of endogenous CD8⁺ T cells in tumor” value (shortened to “Expression of IFN-g … in tumor”) was 2162, the “Expression of TNF-α of endogenous CD8⁺ T cells in tumor” value (“Expression of TNF-α … in tumor” below) was found to be 989 and the “Expression of GzmB+Perforin+ of endogenous CD8⁺ T cells in tumor” value (from here on “Expression of GzmB+Perforin+ … in tumor”) is recorded as 28.2. Further, in the assay with endogenous CD8+ T cells (replicate 2), the “Expression of IFN-g … in tumor” value was found to be 2256, the “Expression of TNF-α … in tumor” value came to 542 and the “Expression of GzmB+Perforin+ … in tumor” value is given as 30. Further, in the assay on endogenous CD8+ T cells (replicate 3), the “Expression of IFN-g … in tumor” value was 2381, the “Expression of TNF-α … in tumor” value is 1324 and the “Expression of GzmB+Perforin+ … in tumor” value is given as 29.9. Further, in the assay on endogenous CD8+ T cells (replicate 4), the “Expression of IFN-g … in tumor” value is on record as 2246, the “Expression of TNF-α … in tumor” value is on record as 780 and the “Expression of GzmB+Perforin+ … in tumor” value is given as 58.8. For the same substance, the “TNF-α expression of CD8+ T cells” value in the assay on endogenous CD8+ T cells (tumors, result in words) is given as “upregulated TNF-α expression”. In addition, the “thermal stability of ZAP70” value in the assay on ZAP70 is reported as “increased thermal stability of ZAP70”.

Source of the values: paper PMC12867150, “A fungi-derived cyclic peptide enhances Th9-mediated antitumor immunity by targeting ZAP70 and SREBP1” (The Journal of Clinical Investigation, 2025).
